Measurements: patent US11780830B2, “Triazolone derivatives or salts thereof and pharmaceutical compositions comprising the same” (YUHAN CORPORATION, priority 2018, dated 2023)
Counter-ions that a name gives are not always drawn.

What was measured:
Format in all cases: biochemical
recombinant human VAP-1 = target: T1, recombinant human VAP-1 (Homo sapiens, UniProt Q16853); assay: Activity on recombinant human VAP-1, HRP-coupled Amplex Red hydrogen peroxide assay; conditions: substrate 1 mM benzylamine; compound incubated with enzyme at 37° C. for 30 minutes; pH 7.4; read-out: Inhibitory Activity (IC50, nM) human VAP-1
T1 construct: purchased R&D systems
T1 sequence (Q16853 1-763): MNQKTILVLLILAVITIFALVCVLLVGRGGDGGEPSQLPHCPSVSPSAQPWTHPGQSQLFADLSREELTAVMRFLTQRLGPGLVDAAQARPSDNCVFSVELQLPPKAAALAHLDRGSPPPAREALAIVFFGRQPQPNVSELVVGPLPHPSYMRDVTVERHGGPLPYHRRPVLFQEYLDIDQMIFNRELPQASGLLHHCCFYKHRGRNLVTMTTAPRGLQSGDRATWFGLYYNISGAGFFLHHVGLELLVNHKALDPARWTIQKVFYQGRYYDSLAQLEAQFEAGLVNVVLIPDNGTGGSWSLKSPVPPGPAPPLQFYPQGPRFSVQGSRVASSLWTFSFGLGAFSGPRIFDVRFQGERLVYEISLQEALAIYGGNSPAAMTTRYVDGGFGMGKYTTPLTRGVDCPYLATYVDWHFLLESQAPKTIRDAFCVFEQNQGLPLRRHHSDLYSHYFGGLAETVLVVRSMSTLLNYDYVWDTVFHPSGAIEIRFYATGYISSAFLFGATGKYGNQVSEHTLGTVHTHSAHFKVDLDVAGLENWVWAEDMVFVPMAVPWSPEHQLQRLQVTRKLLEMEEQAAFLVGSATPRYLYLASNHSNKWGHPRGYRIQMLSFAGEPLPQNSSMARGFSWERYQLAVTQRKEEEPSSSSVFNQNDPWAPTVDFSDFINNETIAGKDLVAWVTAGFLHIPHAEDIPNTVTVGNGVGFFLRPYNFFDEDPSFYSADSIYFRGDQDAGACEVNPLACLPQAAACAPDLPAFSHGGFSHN
In short: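 Dose-response IC50 determined from reduction in resorufin signal rate (544/590 nm, 1-2 h), with 30 min compound preincubation at 37 °C and 1 mM benzylamine as substrate.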

[1] = target: T2, recombinant human MAO-A (monoamine oxidase-A) (Homo sapiens, UniProt P21397); assay: Activity on recombinant human MAO-A, method similar to the VAP-1 assay; conditions: substrate 0.5 mM tyramine; read-out: Inhibitory Activity (IC50, nM) MAO-A
T2 construct: purchased Sigma-Aldrich
T2 sequence (P21397 1-527): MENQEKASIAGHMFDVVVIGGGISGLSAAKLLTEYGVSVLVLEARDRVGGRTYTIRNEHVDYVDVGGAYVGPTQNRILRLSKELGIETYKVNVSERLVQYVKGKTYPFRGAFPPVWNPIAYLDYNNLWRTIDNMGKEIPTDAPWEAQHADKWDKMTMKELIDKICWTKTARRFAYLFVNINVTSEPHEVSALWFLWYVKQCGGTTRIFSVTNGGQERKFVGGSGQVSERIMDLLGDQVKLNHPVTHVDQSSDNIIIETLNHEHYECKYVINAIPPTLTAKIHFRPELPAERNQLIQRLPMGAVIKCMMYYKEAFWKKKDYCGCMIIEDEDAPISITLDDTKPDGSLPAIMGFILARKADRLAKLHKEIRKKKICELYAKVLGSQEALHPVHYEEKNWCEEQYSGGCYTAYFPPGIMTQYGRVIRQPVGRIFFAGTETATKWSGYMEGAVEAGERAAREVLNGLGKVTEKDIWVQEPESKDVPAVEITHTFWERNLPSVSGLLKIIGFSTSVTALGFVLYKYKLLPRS
In short: (§1)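 Amplex Red/HRP coupled read-out of H2O2 with 0.5 mM tyramine for MAO-A or 1 mM benzylamine for MAO-B, following a 30-min compound–enzyme preincubation at 37° C. IC50 from percent inhibition of signal rate relative to uninhibited control.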

[2] = target: T3, recombinant human MAO-B (monoamine oxidase-B) (Homo sapiens, UniProt P27338); assay: Activity on recombinant human MAO-B, method similar to the VAP-1 assay; conditions: substrate 1 mM benzylamine; read-out: Inhibitory Activity (IC50, nM) MAO-B
T3 construct: purchased Sigma-Aldrich
T3 sequence (P27338 1-520): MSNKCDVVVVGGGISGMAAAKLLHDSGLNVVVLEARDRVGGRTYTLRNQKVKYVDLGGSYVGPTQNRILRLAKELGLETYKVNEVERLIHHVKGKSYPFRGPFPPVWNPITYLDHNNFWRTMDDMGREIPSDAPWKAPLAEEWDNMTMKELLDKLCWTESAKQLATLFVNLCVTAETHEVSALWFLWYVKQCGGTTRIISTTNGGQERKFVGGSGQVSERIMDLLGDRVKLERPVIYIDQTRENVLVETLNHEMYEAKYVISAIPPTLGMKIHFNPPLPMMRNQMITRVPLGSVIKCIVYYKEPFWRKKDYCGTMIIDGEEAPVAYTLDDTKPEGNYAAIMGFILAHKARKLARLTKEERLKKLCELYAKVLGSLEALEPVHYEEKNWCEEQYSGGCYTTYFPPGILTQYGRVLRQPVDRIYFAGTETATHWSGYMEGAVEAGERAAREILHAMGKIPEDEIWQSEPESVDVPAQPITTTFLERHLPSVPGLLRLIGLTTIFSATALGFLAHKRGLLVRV
In short: as §1

[3] = target: T4, recombinant human DAO (diamine oxidase) (Homo sapiens, UniProt P19801); assay: Activity on recombinant human DAO, method similar to the VAP-1 assay; conditions: substrate 1 mM putrescine; read-out: Inhibitory Activity (IC50, nM) DAO
T4 construct: purchased R&D systems
T4 sequence (P19801 20-751): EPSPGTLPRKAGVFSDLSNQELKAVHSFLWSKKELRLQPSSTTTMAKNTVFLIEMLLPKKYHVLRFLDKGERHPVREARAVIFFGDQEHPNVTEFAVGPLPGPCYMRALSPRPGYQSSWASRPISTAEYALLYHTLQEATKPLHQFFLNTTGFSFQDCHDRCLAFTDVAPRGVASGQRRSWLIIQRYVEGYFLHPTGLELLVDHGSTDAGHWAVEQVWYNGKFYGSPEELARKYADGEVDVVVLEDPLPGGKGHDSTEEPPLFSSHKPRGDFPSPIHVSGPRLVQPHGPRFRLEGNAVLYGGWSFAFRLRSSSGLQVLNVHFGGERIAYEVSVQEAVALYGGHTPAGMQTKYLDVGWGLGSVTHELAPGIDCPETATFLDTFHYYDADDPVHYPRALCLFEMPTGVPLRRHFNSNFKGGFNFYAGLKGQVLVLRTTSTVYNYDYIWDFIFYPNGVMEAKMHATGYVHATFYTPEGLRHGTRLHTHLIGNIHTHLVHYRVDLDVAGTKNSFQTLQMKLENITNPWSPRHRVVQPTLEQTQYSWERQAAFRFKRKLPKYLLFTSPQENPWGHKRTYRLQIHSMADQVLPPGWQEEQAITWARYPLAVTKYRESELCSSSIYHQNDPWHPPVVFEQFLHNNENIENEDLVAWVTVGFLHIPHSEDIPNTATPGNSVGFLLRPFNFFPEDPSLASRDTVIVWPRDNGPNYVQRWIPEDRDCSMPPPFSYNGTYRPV
In short: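 Inhibition of recombinant human diamine oxidase (DAO, R&D systems) was assessed by the same approach as the VAP-1 assay, using 1 mM putrescine as substrate. Hydrogen peroxide formed was detected through an HRP-coupled Amplex Red reaction yielding fluorescent resorufin, read at 544 nm excitation and 590 nm emission. IC50 values came from four-parameter logistic fitting in GraphPad Prism.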

NC/C(=C\F)Cn1ncn(Cc2ccc(/C=C/c3ccc(F)cc3)s2)c1=O [Example 117, 2-[(2E)-2-(aminomethyl)-3-fluoroprop-2-en-1-yl]-4-(5-[(E)-2-(4-fluorophenyl)ethenyl]thiophen-2-ylmethyl)-2,4-dihydro-3H-1,2,4-triazol-3-one hydrochloride]
IC50 (recombinant human VAP-1): 1.3 nM
IC50 [1]: 93000 nM
IC50 [2]: 270 nM
IC50 [3]: 1200 nM

NC/C(=C\F)Cn1ncn(Cc2ccc(/C=C/c3cccc(F)c3)s2)c1=O [Example 118, 2-[(2E)-2-(aminomethyl)-3-fluoroprop-2-en-1-yl]-4-(5-[(E)-2-(3-fluorophenyl)ethenyl]thiophen-2-ylmethyl)-2,4-dihydro-3H-1,2,4-triazol-3-one hydrochloride]
IC50 (recombinant human VAP-1): 1.1 nM
IC50 [1]: 140000 nM
IC50 [2]: 58 nM
IC50 [3]: 560 nM

NC/C(=C\F)Cn1ncn(Cc2ccc(/C=C/c3ccc(C(F)(F)F)cc3)s2)c1=O [Example 119, 2-[(E)-2-(aminomethyl)-3-fluoro-allyl]-4-[[5-[(E)-2-[4-(trifluoromethyl)phenyl]vinyl]-2-thienyl]methyl]-1,2,4-triazol-3-one hydrochloride]
IC50 (recombinant human VAP-1): 1.8 nM
IC50 [1]: > 100000 nM
IC50 [2]: 1200 nM
IC50 [3]: 860 nM

CN(C)c1ccc(/C=C/c2ccc(Cn3cnn(C/C(=C/F)CN)c3=O)s2)cc1 [Example 120, 2-[(E)-2-(aminomethyl)-3-fluoro-allyl]-4-[[5-[2-[4-(dimethylamino)phenyl]vinyl]-2-thienyl]methyl]-1,2,4-triazol-3-one]
IC50 (recombinant human VAP-1): 6.2 nM
IC50 [1]: 16000 nM
IC50 [2]: 340 nM
IC50 [3]: 1100 nM

NC/C(=C\F)Cn1ncn(Cc2ccc(/C=C/c3ccsc3)s2)c1=O [Example 121, 2-[(E)-2-(aminomethyl)-3-fluoro-allyl]-4-[[5-[(E)-2-(3-thienyl)vinyl]-2-thienyl]methyl]-1,2,4-triazol-3-one hydrochloride]
IC50 (recombinant human VAP-1): 1.2 nM
IC50 [1]: > 100000 nM
IC50 [2]: 290 nM
IC50 [3]: 1800 nM

Cn1cnc2cc(/C=C/c3ccc(Cn4cnn(C/C(=C/F)CN)c4=O)s3)cnc21 [Example 123, 2-[(E)-2-(aminomethyl)-3-fluoro-allyl]-4-[[5-[(E)-2-(3-methylimidazo[4,5-b]pyridin-6-yl)vinyl]-2-thienyl]methyl]-1,2,4-triazol-3-one hydrochloride]
IC50 (recombinant human VAP-1): 0.6 nM
IC50 [1]: > 100000 nM
IC50 [2]: > 10000 nM
IC50 [3]: 250 nM

NC/C(=C\F)Cn1ncn(Cc2ccc(/C=C/c3cnc4c(c3)NC(=O)CO4)s2)c1=O [Example 124, 7-[(E)-2-[5-[[1-[(E)-2-(aminomethyl)-3-fluoro-allyl]-5-oxo-1,2,4-triazol-4-yl]methyl]-2-thienyl]vinyl]-1H-pyrido[2,3-b][1,4]oxazin-2-one hydrochloride]
IC50 (recombinant human VAP-1): 0.1 nM
IC50 [1]: > 100000 nM
IC50 [2]: 5100 nM
IC50 [3]: 270 nM

NC/C(=C\F)Cn1ncn(Cc2ccc(C#Cc3cccc(N)c3)s2)c1=O [Example 125, 2-[(2E)-2-(aminomethyl)-3-fluoroprop-2-en-1-yl]-4-(5-[(3-aminophenyl)ethynyl]thiophen-2-ylmethyl)-2,4-dihydro-3H-1,2,4-triazol-3-one hydrochloride]
IC50 (recombinant human VAP-1): 3.5 nM
IC50 [1]: > 100000 nM
IC50 [2]: 2100 nM
IC50 [3]: 1600 nM

COc1ccc(C#Cc2ccc(Cn3cnn(C/C(=C/F)CN)c3=O)s2)cc1 [Example 126, 2-[(2E)-2-(aminomethyl)-3-fluoroprop-2-en-1-yl]-4-(5-[(4-methoxyphenyl)ethynyl]thiophen-2-ylmethyl)-2,4-dihydro-3H-1,2,4-triazol-3-one hydrochloride]
IC50 (recombinant human VAP-1): 3.4 nM
IC50 [1]: 57000 nM
IC50 [2]: 250 nM
IC50 [3]: 1000 nM

NC/C(=C\F)Cn1ncn(Cc2ccc(C#Cc3cccnc3)s2)c1=O [Example 127, 2-[(2E)-2-(aminomethyl)-3-fluoroprop-2-en-1-yl]-4-[5-(pyridin-3-ylethynyl)thiophen-2-yl]methyl-2,4-dihydro-3H-1,2,4-triazol-3-one hydrochloride]
IC50 (recombinant human VAP-1): 0.8 nM
IC50 [1]: > 100000 nM
IC50 [2]: 150 nM
IC50 [3]: 910 nM

CN(C)c1ccc(C#Cc2ccc(Cn3cnn(C/C(=C/F)CN)c3=O)s2)cn1 [Example 128, 2-[(E)-2-(aminomethyl)-3-fluoro-allyl]-4-[[5-[2-[6-(dimethylamino)-3-pyridyl]ethynyl]-2-thienyl]methyl]-1,2,4-triazol-3-one]
IC50 (recombinant human VAP-1): 0.7 nM
IC50 [1]: 30000 nM
IC50 [2]: 490 nM
IC50 [3]: 9800 nM

NC/C(=C\F)Cn1ncn(Cc2ccc(C#Cc3ccc(N4CCOCC4)nc3)s2)c1=O [Example 129, 2-[(E)-2-(aminomethyl)-3-fluoro-allyl]-4-[[5-[2-(6-morpholino-3-pyridyl)ethynyl]-2-thienyl]methyl]-1,2,4-triazol-3-one hydrochloride]
IC50 (recombinant human VAP-1): 0.6 nM
IC50 [1]: > 100000 nM
IC50 [2]: 770 nM
IC50 [3]: 360 nM
